Results reported in patent publication US5134137A, “Cephalosporin antibiotics” (The Upjohn Company, priority 1990, dated 1992).
≈ marks a conversion by molar mass, not a printed value.

Legend:
Assay type in all cases: cell-based
Streptococcus uberis = assay: MIC, agar dilution, Streptococcus uberis
Description: (§1) Stock solution of each test antibiotic compound were prepared to have a concentration of 2 mg. of the test compound per milliliter in sterile water of 0.1M ammonium acetate solution. The amount of each compound used was adjusted for base compound activity as calculated from the purity data for the selected batch of compound.
(§2) The dilution procedure described by Washington and Sutter [Manual of Clinical Microbiology, 3rd, Edit. (Lennett, E. H. et al, Eds.), pp. 453-458 (1980), American Society for Microbiology, Washington, D.C.] was modified so that serial concentrations of 128 to 0.0625 microgram/ml. in sterile water was obtained. Then 1.5 ml. aliquots of these test antibiotic dilution mixtures are added to 13.5 molten (50° C.) Mueller-Hinton agar. Each resulting mixture is poured into 15×100 mm, sterile Petri plates and allowed to dry at room temperature overnight.
(§3) Test bacterial cultures are maintained at -70° C. on glass beads. [See R. J. Yancey, Jr. et al, Amer. Jr. of Vet. Research, 48, No. 7, pp. 1050-1053, (1987)]. At least one bacteria-laden bead per culture is dropped into one ml. of brain heart infusion (BHI) broth for overnight culture at 37° C. in 5% V/V carbon dioxide in air atmosphere.
(§4) On the data of assay, 2 to 8 drops of the bacterial broth cultures are transferred to fresh BHI broth (1 ml.) and the mixture is incubated for 4 to 6 hours at 37° C. in a 5% V/V carbon dioxide in air atmosphere. The resulting cultures are then diluted to match a 0.5 MacFarland standard and further diluted 1:20 V/V with sterile saline solution.
(§5) A 0.001 ml. drop of the resulting mixture, containing approximately 10^3 to 10^4 colony forming units (CFU) of each test bacteria organism, is dispensed onto the surface of the test antibiotic compound test plates with a Steer's type replicator. The resulting innoculated plates are incubated 16 to 18 hours at 37° C. with a carbon dioxide atmosphere.
as §1, with “Stock solutions” for “Stock solution”
as §2, with “mm.” for “mm,”
as §2, with “for Microbiology.” for “for Microbiology,”, “15×100 mm.” for “15×100 mm,”
as §3, with “culture” for “cultures”
(§6) On the day of assay, 2 to 8 drops of the bacterial broth cultures are transferred to fresh BHI broth (1 ml.) and the mixture is incubated for 4 to 6 hours at 37° C. in a 5% V/V carbon dioxide in air atmosphere. […]

Corynebacterium pyogenes = assay: MIC, agar dilution, Corynebacterium pyogenes; details: strain 213-2
Description: as §1, §2, §3, §4, §5
as §1, with “Stock solutions” for “Stock solution”
as §2, with “mm.” for “mm,”
as §2, with “for Microbiology.” for “for Microbiology,”, “15×100 mm.” for “15×100 mm,”
as §3, with “culture” for “cultures”
as §6

Micrococcus luteus = assay: MIC, agar dilution, Micrococcus luteus; details: strain UC130
Description: as §1, §2, §3, §4, §5
as §1, with “Stock solutions” for “Stock solution”
as §2, with “mm.” for “mm,”
as §2, with “for Microbiology.” for “for Microbiology,”, “15×100 mm.” for “15×100 mm,”
as §3, with “culture” for “cultures”
as §6

Streptococcus suis = assay: MIC, agar dilution, Streptococcus suis; details: strain 650-2
Description: as §1, §2, §3, §4, §5
as §1, with “Stock solutions” for “Stock solution”
as §2, with “mm.” for “mm,”
as §2, with “for Microbiology.” for “for Microbiology,”, “15×100 mm.” for “15×100 mm,”
as §3, with “culture” for “cultures”
as §6

[1] = test system: Bordetella bronchiseptica; assay: MIC, agar dilution, Bordetella bronchiseptica; details: strain UC6313
Description: as §1, §2, §3, §4, §5
as §1, with “Stock solutions” for “Stock solution”
as §2, with “mm.” for “mm,”
as §2, with “for Microbiology.” for “for Microbiology,”, “15×100 mm.” for “15×100 mm,”
as §3, with “culture” for “cultures”
as §6

Enterococcus faecium = assay: MIC, agar dilution, Enterococcus faecium; details: strain UC241
Description: as §1, with “Stock solutions” for “Stock solution”
as §2, §3, §4, §5, §1
as §2, with “mm.” for “mm,”
as §2, with “for Microbiology.” for “for Microbiology,”, “15×100 mm.” for “15×100 mm,”
as §3, with “culture” for “cultures”
as §6

Streptococcus bovis = assay: MIC, agar dilution, Streptococcus bovis; details: strain UC6281
Description: as §1, §2, §3, §4, §5
as §1, with “Stock solutions” for “Stock solution”
as §2, with “mm.” for “mm,”
as §2, with “for Microbiology.” for “for Microbiology,”, “15×100 mm.” for “15×100 mm,”
as §3, with “culture” for “cultures”
as §6

Salmonella typhimurium = assay: MIC, agar dilution, Salmonella typhimurium
Description: as §1, §2, §3, §4, §5
as §1, with “Stock solutions” for “Stock solution”
as §2, with “mm.” for “mm,”
as §2, with “for Microbiology.” for “for Microbiology,”, “15×100 mm.” for “15×100 mm,”
as §3, with “culture” for “cultures”
as §6

Pasteurella hemolytica = assay: MIC (minimum inhibitory concentration), agar dilution, Pasteurella hemolytica
Description: as §1, §2, §3, §4, §5
as §1, with “Stock solutions” for “Stock solution”
as §2, with “mm.” for “mm,”
as §2, with “for Microbiology.” for “for Microbiology,”, “15×100 mm.” for “15×100 mm,”
as §3, with “culture” for “cultures”
as §6

Streptococcus agalactiae = assay: MIC, agar dilution, Streptococcus agalactiae
Description: as §1, §2, §3, §4, §5
as §1, with “Stock solutions” for “Stock solution”
as §2, with “mm.” for “mm,”
as §2, with “for Microbiology.” for “for Microbiology,”, “15×100 mm.” for “15×100 mm,”
as §3, with “culture” for “cultures”
as §6

Escherichia coli = assay: MIC, agar dilution, Escherichia coli
Description: as §1, §2, §3, §4, §5
as §1, with “Stock solutions” for “Stock solution”
as §2, with “mm.” for “mm,”
as §2, with “for Microbiology.” for “for Microbiology,”, “15×100 mm.” for “15×100 mm,”
as §3, with “culture” for “cultures”
as §6

[2] = test system: Streptococcus dysgalactiae; assay: MIC, agar dilution, Streptococcus dysgalactiae; details: strain UC251
Description: as §1, §2, §3, §4, §5
as §1, with “Stock solutions” for “Stock solution”
as §2, with “mm.” for “mm,”
as §2, with “for Microbiology.” for “for Microbiology,”, “15×100 mm.” for “15×100 mm,”
as §3, with “culture” for “cultures”
as §6

Enterococcus faecalis = assay: MIC, agar dilution, Enterococcus faecalis; details: strain UC694
Description: as §1, with “Stock solutions” for “Stock solution”
as §2, §3, §4, §5, §1
as §2, with “mm.” for “mm,”
as §2, with “for Microbiology.” for “for Microbiology,”, “15×100 mm.” for “15×100 mm,”
as §3, with “culture” for “cultures”
as §6

Salmonella choleraesuis = assay: MIC, agar dilution, Salmonella choleraesuis
Description: as §1, §2, §3, §4, §5
as §1, with “Stock solutions” for “Stock solution”
as §2, with “mm.” for “mm,”
as §2, with “for Microbiology.” for “for Microbiology,”, “15×100 mm.” for “15×100 mm,”
as §3, with “culture” for “cultures”
as §6

Pseudomonas aeruginosa = assay: MIC, agar dilution, Pseudomonas aeruginosa; details: strain ATCC 27853
Description: as §1, §2, §3, §4, §5
as §1, with “Stock solutions” for “Stock solution”
as §2, with “mm.” for “mm,”
as §2, with “for Microbiology.” for “for Microbiology,”, “15×100 mm.” for “15×100 mm,”
as §3, with “culture” for “cultures”
as §6

Pasteurella multocida = assay: MIC, agar dilution, Pasteurella multocida; details: strain UC9581
Description: as §1, §2, §3, §4, §5
as §1, with “Stock solutions” for “Stock solution”
as §2, with “mm.” for “mm,”
as §2, with “for Microbiology.” for “for Microbiology,”, “15×100 mm.” for “15×100 mm,”
as §3, with “culture” for “cultures”
as §6

Staphylococcus aureus = assay: MIC, agar dilution, Staphylococcus aureus
Description: as §1, §2, §3, §4, §5
as §1, with “Stock solutions” for “Stock solution”
as §2, with “mm.” for “mm,”
as §2, with “for Microbiology.” for “for Microbiology,”, “15×100 mm.” for “15×100 mm,”
as §3, with “culture” for “cultures”
as §6

MIC (Streptococcus uberis; strain UC3946): 0.25 µg/mL (≈ 0.511 µM) | MIC (Streptococcus uberis; strain UC6159): > 32 µg/mL | MIC (Corynebacterium pyogenes): 32 µg/mL (≈ 65.4 µM) | MIC (Micrococcus luteus): 0.5 µg/mL (≈ 1.02 µM) | MIC (Streptococcus suis): ≤ 0.06 µg/mL | MIC [1]: 16 µg/mL (≈ 32.7 µM) | MIC (Enterococcus faecium): 32 µg/mL (≈ 65.4 µM) | MIC (Streptococcus bovis): > 32 µg/mL | MIC (Salmonella typhimurium; strain UC6162): 8 µg/mL (≈ 16.3 µM) | MIC (Salmonella typhimurium; strain UC6164): 8 µg/mL (≈ 16.3 µM) | MIC (Streptococcus agalactiae; strain UC3947): 2 µg/mL (≈ 4.08 µM) | MIC (Streptococcus agalactiae; strain UC6892): > 32 µg/mL | MIC (Escherichia coli; strain UC3784): 4 µg/mL (≈ 8.17 µM) | MIC (Escherichia coli; strain UC6720): 8 µg/mL (≈ 16.3 µM) | MIC (Escherichia coli; strain UC9670): 4 µg/mL (≈ 8.17 µM) | MIC [2]: ≤ 0.06 µg/mL | MIC (Enterococcus faecalis): 32 µg/mL (≈ 65.4 µM) | MIC (Pseudomonas aeruginosa): > 32 µg/mL | MIC (Pasteurella multocida): 4 µg/mL (≈ 8.17 µM) | MIC (Staphylococcus aureus; strain UC6093): 4 µg/mL (≈ 8.17 µM) | MIC (Staphylococcus aureus; strain UC6097): 2 µg/mL (≈ 4.08 µM) | MIC (Staphylococcus aureus; strain UC9203): 2 µg/mL (≈ 4.08 µM)
SMILES: CCSSCC1=C(C(=O)O)N2C(=O)C(NC(=O)C(=NOC)c3csc(N)n3)C2SC1 (stereo not drawn) [Example 10, 7-[2-(2-amino-1,3-thiazol-4-yl)-2-(methoxyimino)acetamido]-3-ethyldithiomethyl-3-cephem-4-carboxylic acid]
MIC (Pasteurella hemolytica; strain UC6531): 0.25 µg/mL (≈ 0.511 µM) | MIC (Pasteurella hemolytica; strain UC6532): 0.25 µg/mL (≈ 0.511 µM) | MIC (Pasteurella hemolytica; strain UC9582): 0.5 µg/mL (≈ 1.02 µM) | MIC (Salmonella choleraesuis; strain UC6073): 16 µg/mL (≈ 32.7 µM) | MIC (Salmonella choleraesuis; strain UC6077): 32 µg/mL (≈ 65.4 µM)
